Laboratory results published in US8623897B2, “Methods and compositions for treatment of diabetes and dyslipidemia” (Kareus Therapeutics, SA, priority 2010, dated 2014).

Legend:
[1] = tested on: obese diabetic C57BLKS db/db mice; assay: In vivo efficacy in diabetic db/db mice (plasma glucose, triglycerides, HOMA index); parameters: species or system mouse; details: male db/db mice, after 1-2 weeks of treatment; for Plasma glucose (% change compared to vehicle) / Plasma Triglycerides (% change compared to vehicle): 6 h fast; for Insulin resistance HOMA index (% change compared to vehicle): HOMA = I0×G0/405
Procedure: Male obese diabetic C57BLKS db/db mice (6 weeks old) were procured from the Jackson Laboratory (Bar Harbor, Me.) and were maintained on LabDiet 5K52 ad libitum with access to water. Animals were kept in a temperature-controlled room on a 12:12-h light-dark cycle. Experiments were performed on 6-9 week old mice.
Blood samples were collected after a 6 h fast on day 0 (baseline) and at the end week 1 and week 2 (day 7 and day 14) for analysis of glucose, triglycerides, total cholesterol, insulin and free fatty acid levels. Body weight and feed intake was measured twice weekly. Before initiation of the treatment, the animals were randomized based on plasma glucose levels into treatment groups (n=8 per group). The animals were administered the test compounds in 0.5% carboxymethylcellulose in water at the mentioned doses for two weeks by oral gavage. The control animals received the vehicle (0.5% carboxymethylcellulose in water) alone. Compound administration was continued till day 16.
Plasma glucose (PG) and triglycerides (TG) were measured spectrophotometrically in a microplate reader using reagent kits (Labkit, Merck) according to the manufacturer's instructions. Plasma insulin was measured by ELISA using a Rat/Mouse kit from Millipore (Cat. No. EZRMI-13K).
The percentage reduction was calculated according to the following formula
[formula] Statistical analysis was carried out by one way ANOVA followed by Dunnett's test using GraphPad Prism.
Determination of Homeostatic model assessment of insulin resistance (HOMA)—The HOMA index for insulin resistance was calculated using the formula— I0×G0/405 Where I0 is the fasting insulin (μU/ml), G0 is the fasting glucose in mg/dL. A factor of 6.945 was used for the conversion of insulin pmol/L to μlU/L).
The table below summarizes the effect on plasma glucose, triglycerides, and insulin resistance after 1-2 weeks of treatment with representative compounds of Formula I. Example numbers denote the products of examples given above. The data presented in the table is representative and should not be read as limiting the invention to the specific examples listed in the Table.

Row | melting point [°C] | SMILES | further results
1 | 95.3 to 97.7 | O=C(O)C1(CCCCCCCCCCCCC2(C(=O)NC3CC3)CC2)CC1 [Example 35, 1-[12-(1-Cyclopropylcarbamoyl-cyclopropyl)-dodecyl]-cyclopropane carboxylic acid] | Plasma glucose (% change compared to vehicle) ([1]; 15 mg/kg oral gavage): −30%
2 | 53.5 to 54.5 | COC(=O)C1(CCCCCCCCCCCCC2(C(=O)NS(C)(=O)=O)CC2)CC1 [Example 36, 1-[12-(1-Methanesulfonylaminocarbonyl-cyclopropyl)-dodecyl]-cyclopropanecarboxylic acid methyl ester] | –
3 | 97.5 to 99.4 | CS(=O)(=O)NC(=O)C1(CCCCCCCCCCCCC2(C(=O)O)CC2)CC1 [Example 37, 1-[12-(1-Methanesulfonylaminocarbonyl-cyclopropyl)-dodecyl]-cyclopropanecarboxylic acid] | Plasma glucose (% change compared to vehicle) ([1]; 15 mg/kg oral gavage): −59%
4 | 54 to 54.8 | O=C(O)C1(CCCCCCCCCCCCC2(C(F)F)CC2)CC1 [Example 39, 1-[12-(1-Difluoromethyl-cyclopropyl)-dodecyl]-cyclopropanecarboxylic acid] | –
5 | 112.5 to 113.5 | O=C(NCCO)C1(CCCCCCCCCCCCC2(C(=O)NCCO)CC2)CC1 [Example 40, 1,1′-dodecane-1,12-diylbis[N-(2-hydroxyethyl)cyclopropanecarboxamide]] | –
6 | 81.1 to 83.8 | O=C(O)C1(CCCCCCCCCCCCC2(C(=O)NCCO)CC2)CC1 [Example 42, 1-{12-[1-(2-hydroxy-ethylcarbamoyl)-cyclopropyl]-dodecyl}-cyclopropane carboxylic acid] | –

Continued, compound first:

Row | SMILES | melting point [°C] | further results
7 | N#CC1(CCCCCCCCCCCCC2(C(=O)O)CC2)CC1 | 44.4 to 46.9 | –
8 | CC(C)(CCCCCCCCCCCCC1(C(=O)O)CC1)C(=O)O | 85.6 to 86.7 | –
9 | N#CC1(CCCCCCCCCCCCC2(C#N)CC2)CC1 | 45 to 46.9 | –
10 | O=C(O)C1(CCCCCCCCCCCCC2(C(=O)O)CC2)CC1 [Example 1, 2,15-Dicycloproryl-hexadecanedioic acid] | – | Plasma glucose (% change compared to vehicle) ([1]; 10 mg/kg oral gavage): −52%; Insulin resistance HOMA index (% change compared to vehicle) ([1]; 10 mg/kg oral gavage): −65%
11 | O=C(O)CC1(CCCCCCCCCCC2(CC(=O)O)CC2)CC1 [Example 4, {1-[10-(1-carboxymethyl-cyclopropyl)-decyl]-cyclopropyl}-acetic acid] | – | Plasma Triglycerides (% change compared to vehicle) ([1]; 50 mg/kg oral gavage): −51%; Insulin resistance HOMA index (% change compared to vehicle) ([1]; 50 mg/kg oral gavage): −54%
12 | CCOC(=O)C1(CCCCCCCCCCCCC2(C(=O)OCC)CC2)CC1 [Example 10, 2,15-Dicyclopropyl-hexadecanedoic acid diethyl ester] | – | Plasma Triglycerides (% change compared to vehicle) ([1]; 15 mg/kg oral gavage): −23%; Plasma glucose (% change compared to vehicle) ([1]; 15 mg/kg oral gavage): −51%
13 | NC(=O)C1(CCCCCCCCCCCCC2(C(=O)O)CC2)CC1 [Example 12] | 116.6 to 118.1 | Plasma Triglycerides (% change compared to vehicle) ([1]; 20 mg/kg oral gavage): −28%; Plasma glucose (% change compared to vehicle) ([1]; 20 mg/kg oral gavage): −55%; Insulin resistance HOMA index (% change compared to vehicle) ([1]; 20 mg/kg oral gavage): −89%
14 | COCC1(CCCCCCCCCCCCC2(C(=O)O)CC2)CC1 [Example 15, 1-[12-(1-Methoxymethyl-cyclopropyl)-dodecyl]-cyclopropanecarboxylic acid] | 36.4 to 37.6 | Plasma Triglycerides (% change compared to vehicle) ([1]; 15 mg/kg oral gavage): −35%; Plasma glucose (% change compared to vehicle) ([1]; 15 mg/kg oral gavage): −56%; Insulin resistance HOMA index (% change compared to vehicle) ([1]; 15 mg/kg oral gavage): −92%
15 | O=C(O)CC1(CCCCCCCCCCC2(C(=O)O)CC2)CC1 [Example 23, 1-[10-(1-Carboxymethyl-cyclopropyl)-decyl]-cyclopropanecarboxylic acid] | 71.9 to 74.3 | –
16 | O=C(O)CC1(CCCCCCCCCCCC2(C(=O)O)CC2)CC1 [Example 30, 1-[11-(1-Carboxymethyl-cyclopropyl)-undecyl]-cyclopropanecarboxylic acid] | 75.3 to 78.9 | –
17 | COC(=O)C1(CCCCCCCCCCCCC2(C(=O)NC3CC3)CC2)CC1 [Example 34, 1-[12-(1-cyclopropylcarbamoyl-cyclopropyl)-dodecyl]-cyclopropane-carboxylic acid methyl ester] | 50.6 to 53 | –
